Results reported in paper PMC10056485 (International Journal of Molecular Sciences, 2023).
Several values for one entry are separate records, joined by “and”; a condition that tells them apart may be missing. Equal values may be shown once. Read-outs that look alike come from different tables or passages of the source. Marks after values point to notes of the source that are not given here.

Columns and labels:
[1] = cited from earlier work
[2] = Organ distribution (biodistribution) of cabozantinib in rats with or without radiotherapy; format: in vivo, Sprague–Dawley rats; settings: for Concentration of cabozantinib in brain / Concentration of cabozantinib in heart / Concentration of cabozantinib in kidney / Concentration of cabozantinib in liver / Concentration of cabozantinib in lung / Concentration of cabozantinib in spleen: rat, 6 mg/kg p.o. 3 days, six hours after administration
Description: The whole liver was targeted for irradiation. […] The data were collected from six rats per group.
Nine Gy was used to simulate the SBRT dose.
The brain, liver, heart, spleen, lung and kidney were collected and weighed. These collected samples were stored at −20 °C until analysis.
The thawed organ samples were homogenized in 50% aqueous acetonitrile (the ratio of sample weight to volume was 1:5), and the homogenate was centrifuged at 13,000× g for 10 min at 4 °C. The supernatant was collected, placed in brown Eppendorf tubes, and stored at −20 °C until analysis. Briefly, each organ sample (50 μL) was combined with 150 μL of IS solution (diethylstilbestrol) for protein precipitation. Finally, 20 μL of filtrate was subjected to HPLC analysis.

[3] = set-up: method as in PMID 30649748; settings: cited from earlier work
[4] = test system: triple-negative 4T1 cells; settings: combination of RT with cabozantinib, in vitro; cited from earlier work
[5] = cited from earlier work; remark: listed apart in the source
[6] = Pharmacokinetics of cabozantinib in plasma of freely moving rats with or without liver radiotherapy; settings: for AUC(0-t): AUC0-T; for AUC(0-t) / Cmax / MRT / Tmax / Vss: rat plasma, 6 mg/kg p.o. q.d. 3 days
Description: (§1) The HPLC system consisted of a chromatographic pump (LC-20AT), an online injector (SIL-20C) equipped with a 10 μL sample loop to inject the sample and an ultraviolet detector (SPD-M20A). […] Biochanin A was used as the internal standard (IS), and the retention time of biochanin A was 3.8 min (Figure 4).
(§2) A freely moving rat model was designed for the current study [19]. Briefly, the whole liver for the EBRT technique or central area 1.5 × 1.5 cm in size for the SBRT technique of rats was localized by computed tomography. For the whole liver field, the cranial margin was set 5 mm from the top of the diaphragm, and the caudal margin was set 5 mm lower than the liver margin. The whole liver was targeted for irradiation. […] The data were collected from six rats per group.
(§3) A radiation dose of 2 Gy was considered the daily conventional dose or the off-target dose around the target that received an ablation RT dose. Nine Gy was used to simulate the SBRT dose. […] Rats were initially anesthetized with pentobarbital (50 mg/kg, i.p.) and remained anesthetized throughout the experimental period. After the surgery, the rats were placed in an experimental cage and allowed to recover for 1 day. Cabozatinib was dissolved in triply deionized water and administered (6 mg/kg, p.o.) to the rats (n = 6 per group).
(§4) Blood samples were collected via polyethylene tubing (PE-50) implanted into the jugular vein of each rat in a heparin-rinsed vial. An aliquot of 100–120 µL of blood was collected at time intervals of 0, 5, 15, 30, 45, 60, 90, 120, 150, 180, 210 and 240 min following drug administration. At each time point, 200 μL of blood was drawn into heparin-rinsed Eppendorf tubes and then centrifuged at 13,000 rpm for 10 min at 4 °C to obtain plasma. Plasma was stored at −20 °C until analysis. Each collected blood sample was transferred to a heparinized microcentrifuge tube and centrifuged at 13,000 rpm for 10 min. The resulting plasma (50 μL) was then mixed with 150 μL of internal standard solution (10 μg/mL). The denatured protein precipitate was separated by vortexing for 20 s and centrifuged at 13,000 rpm for 10 min at 4 °C.
(§5) Pharmacokinetic parameters, including the area under the concentration versus time curve (AUC), clearance (CL), elimination half-life (𝑡1/2), volume of distribution at steady state (Vss) and mean residence time (MRT), were calculated using the pharmacokinetics calculation software WinNonlin Standard Edition, Version 1.1 (Scientific Consulting, Apex, NC, USA) by a compartmental method. Relative bioavailability (RB %) = (AUCirradiated/AUCcontrol) × 100.

[7] = Sprague-Dawley, rat, in vivo
Description: as §1, §2, §3, §4, §5

tumor growth = settings: combination of cabozantinib and irradiation, in vivo; cited from earlier work
[8] = metastatic renal cell carcinoma patients, cited from earlier work
plasma protein = settings: cited from earlier work
[9] = phase III study of HCC, cabozantinib alone
[10] = rats, RT9Gy×3 f'x sequential compared to RT9Gy×3 f'x concurrent regimen, p = 0.02
[11] = Sprague-Dawley, rat, plasma, po, 6 mg/kg, RT 2Gy x 3 f'x concurrent
[12] = Sprague-Dawley, rat, plasma, po, 6 mg/kg, RT 2Gy x 3 f'x sequential
[13] = Sprague-Dawley, rat, plasma, po, 6 mg/kg, RT 9Gy x 3 f'x concurrent
[14] = Sprague-Dawley, rat, plasma, po, 6 mg/kg, RT 9Gy x 3 f'x sequential
[15] = Sprague-Dawley, rat, plasma, po, 6 mg/kg, cabozantinib only (no RT)

SMILES: COc1cc2nccc(Oc3ccc(NC(=O)C4(C(=O)Nc5ccc(F)cc5)CC4)cc3)c2cc1OC [cabozantinib]
- Rate of grade 3 or 4 adverse events ([1]; cabozantinib alone for HCC treatment): 10–17%
- Serious adverse events rate ([1]; cabozantinib for HCC treatment): 12%
- Grade 3 or 4 diarrhea [1, 9]: 10%
- Grade 3 or 4 fatigue [1, 9]: 10%
- Grade 3 or 4 hypertension [1, 9]: 16%
- Grade 3 or 4 increased aspartate aminotransferase level [1, 9]: 12%
- Grade 3 or 4 palmar–plantar erythrodysesthesia [1, 9]: 17%
- Concentration of cabozantinib in brain ([2]; RT 2Gy concurrent): 0.00 ± 0.00 µg/mL or µg/g
- Concentration of cabozantinib in heart ([2]; RT 2Gy concurrent): 0.52 ± 0.39 µg/mL or µg/g
- Concentration of cabozantinib in kidney ([2]; RT 2Gy concurrent): 0.17 ± 0.06 µg/mL or µg/g
- Concentration of cabozantinib in liver ([2]; RT 2Gy concurrent): 0.39 ± 0.16 µg/mL or µg/g
- Concentration of cabozantinib in lung ([2]; RT 2Gy concurrent): 0.40 ± 0.34 µg/mL or µg/g
- Concentration of cabozantinib in spleen ([2]; RT 2Gy concurrent): 0.16 ± 0.03 µg/mL or µg/g
- Concentration of cabozantinib in brain ([2]; RT 2Gy sequential): 0.00 ± 0.00 µg/mL or µg/g
- Concentration of cabozantinib in heart ([2]; RT 2Gy sequential): 0.26 ± 0.11 µg/mL or µg/g
- Concentration of cabozantinib in kidney ([2]; RT 2Gy sequential): 0.29 ± 0.09 ^a µg/mL or µg/g
- Concentration of cabozantinib in liver ([2]; RT 2Gy sequential): 0.47 ± 0.18 µg/mL or µg/g
- Concentration of cabozantinib in lung ([2]; RT 2Gy sequential): 0.35 ± 0.19 µg/mL or µg/g
- Concentration of cabozantinib in spleen ([2]; RT 2Gy sequential): 0.16 ± 0.05 µg/mL or µg/g
- Concentration of cabozantinib in brain ([2]; RT 9Gy concurrent): 0.00 ± 0.00 µg/mL or µg/g
- Concentration of cabozantinib in heart ([2]; RT 9Gy concurrent): 0.16 ± 0.05 µg/mL or µg/g
- Concentration of cabozantinib in kidney ([2]; RT 9Gy concurrent): 0.16 ± 0.07 µg/mL or µg/g
- Concentration of cabozantinib in liver ([2]; RT 9Gy concurrent): 0.28 ± 0.14 µg/mL or µg/g
- Concentration of cabozantinib in lung ([2]; RT 9Gy concurrent): 0.16 ± 0.10 µg/mL or µg/g
- Concentration of cabozantinib in spleen ([2]; RT 9Gy concurrent): 0.20 ± 0.07 µg/mL or µg/g
- Concentration of cabozantinib in brain ([2]; RT 9Gy sequential): 0.00 ± 0.00 µg/mL or µg/g
- Concentration of cabozantinib in heart ([2]; RT 9Gy sequential): 0.29 ± 0.09 *^b µg/mL or µg/g
- Concentration of cabozantinib in kidney ([2]; RT 9Gy sequential): 0.30 ± 0.14 ^b µg/mL or µg/g
- Concentration of cabozantinib in liver ([2]; RT 9Gy sequential): 0.59 ± 0.24 ^b µg/mL or µg/g
- Concentration of cabozantinib in lung ([2]; RT 9Gy sequential): 0.36 ± 0.08 *^b µg/mL or µg/g
- Concentration of cabozantinib in spleen ([2]; RT 9Gy sequential): 0.16 ± 0.04 µg/mL or µg/g
- Concentration of cabozantinib in brain ([2]; cabozantinib only (no RT)): 0.00 ± 0.00 µg/mL or µg/g
- Concentration of cabozantinib in heart ([2]; cabozantinib only (no RT)): 0.14 ± 0.06 µg/mL or µg/g
- Concentration of cabozantinib in kidney ([2]; cabozantinib only (no RT)): 0.22 ± 0.06 µg/mL or µg/g
- Concentration of cabozantinib in liver ([2]; cabozantinib only (no RT)): 0.44 ± 0.19 µg/mL or µg/g
- Concentration of cabozantinib in lung ([2]; cabozantinib only (no RT)): 0.25 ± 0.05 µg/mL or µg/g
- Concentration of cabozantinib in spleen ([2]; cabozantinib only (no RT)): 0.12 ± 0.09 µg/mL or µg/g
- Increase of biodistribution in the heart ([2]; rats, RT2Gy×3 f'x concurrent regimen, printed as compared to the concurrent regimen, p = 0.04): 271.4% and 271%
- Increase of biodistribution in the lung ([2]; rats, RT9Gy×3 f'x sequential compared to RT9Gy×3 f'x concurrent regimen, p = 0.004): 125%
- Increase of biodistribution in the heart [2, 10]: 81.3%
- Increase of biodistribution in the liver [2, 10]: 110.5%
- Increase of biodistribution in the kidneys ([2]; rats, RT9Gy×3 f'x sequential compared to RT9Gy×3 f'x concurrent regimen, p = 0.048): 87.5%
- Increase of biodistribution in the heart ([2]; rats, RT9Gy×3 f'x sequential regimen compared with control group, p = 0.01): 107.1% and 107%
- Increase of biodistribution in the lung ([2]; rats, RT9Gy×3 f'x sequential regimen compared with control group, p = 0.02): 44%
- Detection of cabozantinib in the brain ([2]; rats, any of the groups): No cabozantinib was detected
- Increase of kidney biodistribution ([2]; rats, sequential RT2Gy×3 f'x compared to control group, p = 0.02): 31.8% and 32%
- Osteonecrosis of jaw [3]: 1%
- Risk of grade 3 or above hemorrhagic events [3]: 2.1–3%
- Serious gastrointestinal perforation or fistula [3]: 1.2–3%
- Effect on clonogenic survival [4]: a synergistic effect was found
- Half-life [5]: approximately 110 h
- Increase of AUC of cabozantinib ([5]; liver function impaired): 63–81%
- Time of second absorption peak after administration ([5]; plasma concentration–time profiles): approximately 24 h
- Increase of AUC of cabozantinib ([5]; renal function impaired): 7–30%
- concentration at 60 min ([6]; Sprague-Dawley, rat, plasma, po, 6 mg/kg): 800 ng/mL
- AUC(0-t) [6, 11]: 5100 ng·h/mL
- AUC(0-t) [6, 12]: 3900 ng·h/mL
- AUC(0-t) [6, 13]: 4290 ng·h/mL
- AUC(0-t) [6, 14]: 4180 ng·h/mL
- AUC(0-t) [6, 15]: 4440 ng·h/mL
- Cmax [6, 11]: 1600 ± 470 ng/mL
- Cmax [6, 12]: 1360 ± 540 ng/mL
- Cmax [6, 13]: 1370 ± 470 ng/mL
- Cmax [6, 14]: 1350 ± 490 ng/mL
- Cmax [6, 15]: 1440 ± 440 ng/mL
- MRT [6, 11]: 13.7 h
- MRT [6, 12]: 9.05 h
- MRT [6, 13]: 11.2 h
- MRT [6, 14]: 38.5 h
- MRT [6, 15]: 26.7 h
- Tmax [6, 11]: 0.611 h
- Tmax [6, 12]: 3.08 h
- Tmax [6, 13]: 0.639 h
- Tmax [6, 14]: 2.92 h
- Tmax [6, 15]: 2.25 h
- Vss ([6]; RT 2Gy x 3 f'x concurrent): 3.942 ± 1.303 L/kg
- Vss ([6]; RT 2Gy x 3 f'x sequential): 5.668 ± 2.22 L/kg
- Vss ([6]; RT 9Gy x 3 f'x concurrent): 4.204 ± 1.272 L/kg
- Vss ([6]; RT 9Gy x 3 f'x sequential): 3.153 ± 0.482 L/kg
- Vss ([6]; cabozantinib only (no RT)): 4.831 ± 1.307 L/kg
- Decrease of Tmax [7]: 72.8%
- Increase of CL [7]: 249.0%
- Increase of Tmax [7]: 404.1%
- Tumor growth control (tumor growth): not increased
- Grade 3–4 AE rate ([8]; cabozantinib concurrent with SBRT): 3.6%
- Grade 3–4 AE rate ([8]; cabozantinib concurrent with conventional RT): 6.3%
- Plasma protein binding (plasma protein): ≥ 99.7%
